Results from patent US20230116196A1, “METHOD OF TREATING CNS DISORDERS WITH NEU[…] GABAERGIC COMPOUNDS” (priority 2017, published 2023).

Experiments:
[1] = tested on: GABAA receptor α4 S443 and β3 S408/9; assay: Phosphorylation of S443 and S408/9 in brains of mice after IP injection; assay type: in vivo, mouse; details: 5 mg/kg IP, 30 min after treatment
Description: C57/B16 mice injected with SGE-516 (5 mg/kg IP), or vehicle. 30 min after the treatment mice were sacrificed by microwave irradiation. SDS-soluble hippocampal extracts were then immunoblotted with pS443, α4, pS408/9, or β3 subunit antibodies.

DGGCs from S408/9A mice = assay: Sustained effect on tonic current in DGGCs from S408/9A mice; assay type: cell-based, mouse; details: 100 nM, washout

Compound: C[C@@]1(O)CC[C@@]2(C)[C@H](CC[C@@H]3[C@@H]2CC[C@]2(C)[C@@H](C(=O)Cn4nccn4)CC[C@@H]32)C1 [SGE-516]
- phosphorylation of S443 and S408/9 in the brains of mice [1]: increased
- tonic current in S408/9A mice (DGGCs from S408/9A mice): did not modify
